Data taken from patent publication US9120820B2, “Fluorescent molecular probes for use in assays that measure test compound competitive binding with SAM-utilizing proteins” (CAYMAN CHEMICAL COMPANY, INCORPORATED, priority 2011, dated 2015).
Where “and” joins values, the source holds several entries; their conditions need not be identical. Identical values can stand only once. Like-named read-outs stand apart in the source and are kept apart here.

What was measured:
SET7/9 = target: T1, SET7/9 (Homo sapiens, UniProt Q8WTS6); assay: Fluorescence polarization saturation binding of fluorescent probe to SET7/9
T1 construct: purchased Cayman 10320
T1 sequence (Q8WTS6 1-366): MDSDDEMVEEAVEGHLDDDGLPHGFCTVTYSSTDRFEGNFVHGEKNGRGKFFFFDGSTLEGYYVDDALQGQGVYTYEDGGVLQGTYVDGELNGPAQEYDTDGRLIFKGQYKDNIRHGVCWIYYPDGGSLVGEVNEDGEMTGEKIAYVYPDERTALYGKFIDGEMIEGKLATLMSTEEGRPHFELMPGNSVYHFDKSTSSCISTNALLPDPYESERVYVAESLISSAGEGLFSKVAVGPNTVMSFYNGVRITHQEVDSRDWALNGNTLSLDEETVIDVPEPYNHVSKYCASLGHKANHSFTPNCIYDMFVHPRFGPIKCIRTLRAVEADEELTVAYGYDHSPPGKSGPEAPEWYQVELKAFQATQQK
Protocol: (§1) Methods: The experiment was performed once, with two replicate wells for all methyltransferases per condition. The sole exception to this is NSD2 (see details below). The assay was performed in a ½ area, black, 96-well plate (Corning #3686) in a final volume of 30 μL. Methyltransferases (Table 1) were serially diluted two-fold in FP buffer (Cayman Catalog #600028) and 15 μL of a given dilution were added per well to the assay plate. Fifteen microliters of sinefungin probe 1A (10 nM) were added to each well, giving a final sinefungin probe 1A concentration of 5 nM. This concentration of sinefungin probe 1A was chosen because it had at least a 10-fold increase in fluorescence (excitation max 575 nm/emission max 615 nm) over background (buffer). The mixture was incubated in the dark at room temperature for 30 minutes and its fluorescence polarization was read using a BioTek Synergy 4.

PRDM9 = target: T2, PRDM9 (Homo sapiens, UniProt Q9NQV7); assay: Fluorescence polarization saturation binding of fluorescent probe to PRDM9; conditions: saturation-binding format, mean ± SEM, read-out: Sinefungin Probe 1A Affinity
T2 construct: purchased Cayman
T2 sequence (Q9NQV7 whole entry, species assumed): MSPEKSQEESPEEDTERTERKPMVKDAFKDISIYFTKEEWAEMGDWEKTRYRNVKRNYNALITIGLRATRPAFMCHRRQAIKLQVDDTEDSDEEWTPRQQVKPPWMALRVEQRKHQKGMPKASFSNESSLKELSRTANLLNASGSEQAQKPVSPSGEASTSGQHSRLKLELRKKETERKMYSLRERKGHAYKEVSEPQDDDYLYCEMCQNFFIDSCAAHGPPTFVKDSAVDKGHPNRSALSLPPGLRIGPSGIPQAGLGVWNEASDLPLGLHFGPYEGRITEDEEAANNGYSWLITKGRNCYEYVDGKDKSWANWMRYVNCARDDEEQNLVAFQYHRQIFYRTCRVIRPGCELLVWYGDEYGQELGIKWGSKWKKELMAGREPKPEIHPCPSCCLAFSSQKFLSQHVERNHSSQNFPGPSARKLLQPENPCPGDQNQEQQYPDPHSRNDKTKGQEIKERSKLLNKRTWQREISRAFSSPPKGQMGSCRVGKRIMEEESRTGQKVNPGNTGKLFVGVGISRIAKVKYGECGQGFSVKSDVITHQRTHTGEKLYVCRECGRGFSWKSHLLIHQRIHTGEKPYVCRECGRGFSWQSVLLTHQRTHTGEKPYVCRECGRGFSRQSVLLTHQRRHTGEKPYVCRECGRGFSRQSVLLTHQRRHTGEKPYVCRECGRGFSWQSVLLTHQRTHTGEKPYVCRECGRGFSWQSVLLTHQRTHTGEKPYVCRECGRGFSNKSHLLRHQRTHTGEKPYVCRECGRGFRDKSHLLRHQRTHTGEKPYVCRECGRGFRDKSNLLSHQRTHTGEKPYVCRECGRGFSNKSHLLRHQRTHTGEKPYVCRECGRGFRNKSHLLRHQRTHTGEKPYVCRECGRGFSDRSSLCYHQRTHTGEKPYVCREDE
Protocol: (§2) Sinefungin Probe 1A was tested for the ability to bind to 16 proteins, including several non-methlytransferase protein controls (Table 2). This probe binds to 4 methyltransferases (SET7/9, G9a, GLP, MLL) with Kd values <2 μM.

PRMT1 = target: T3, PRMT1 (Homo sapiens, UniProt Q99873); assay: Fluorescence polarization saturation binding of fluorescent probe to PRMT1
T3 construct: purchased Cayman
T3 sequence (Q99873 whole entry): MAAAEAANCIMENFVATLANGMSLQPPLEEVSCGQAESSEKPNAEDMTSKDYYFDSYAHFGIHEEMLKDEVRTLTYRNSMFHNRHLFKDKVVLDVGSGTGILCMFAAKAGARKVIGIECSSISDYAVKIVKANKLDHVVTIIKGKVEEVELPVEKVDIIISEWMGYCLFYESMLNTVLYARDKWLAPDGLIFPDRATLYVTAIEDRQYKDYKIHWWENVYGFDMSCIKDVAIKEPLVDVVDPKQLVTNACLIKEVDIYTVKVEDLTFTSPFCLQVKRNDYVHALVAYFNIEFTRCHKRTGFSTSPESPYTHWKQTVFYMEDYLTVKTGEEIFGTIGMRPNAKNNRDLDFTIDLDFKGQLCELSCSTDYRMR
Protocol: as §1

SET8 = target: T4, SET8 (Homo sapiens, UniProt Q9NQR1); assay: Fluorescence polarization saturation binding of fluorescent probe to SET8
T4 construct: purchased Cayman 10319
T4 sequence (Q9NQR1 1-393): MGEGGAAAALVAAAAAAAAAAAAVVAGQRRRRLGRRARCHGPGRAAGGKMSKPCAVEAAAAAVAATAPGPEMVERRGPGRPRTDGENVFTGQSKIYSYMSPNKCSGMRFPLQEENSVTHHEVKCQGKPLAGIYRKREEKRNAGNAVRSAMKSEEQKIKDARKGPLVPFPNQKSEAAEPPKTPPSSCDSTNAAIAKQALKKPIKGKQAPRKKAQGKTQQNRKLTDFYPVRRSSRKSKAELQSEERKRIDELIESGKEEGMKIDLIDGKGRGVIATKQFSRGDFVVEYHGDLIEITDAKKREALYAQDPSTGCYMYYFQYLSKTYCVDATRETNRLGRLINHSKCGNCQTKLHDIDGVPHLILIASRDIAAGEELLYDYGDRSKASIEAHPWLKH
Protocol: as §1

KMT5c = KMT5c (Homo sapiens, UniProt Q86Y97); assay: Fluorescence polarization saturation binding of fluorescent probe to KMT5c; conditions: saturation-binding format, read-out: Sinefungin Probe 1A Affinity
KMT5c, sequence (Q86Y97 whole entry, species assumed): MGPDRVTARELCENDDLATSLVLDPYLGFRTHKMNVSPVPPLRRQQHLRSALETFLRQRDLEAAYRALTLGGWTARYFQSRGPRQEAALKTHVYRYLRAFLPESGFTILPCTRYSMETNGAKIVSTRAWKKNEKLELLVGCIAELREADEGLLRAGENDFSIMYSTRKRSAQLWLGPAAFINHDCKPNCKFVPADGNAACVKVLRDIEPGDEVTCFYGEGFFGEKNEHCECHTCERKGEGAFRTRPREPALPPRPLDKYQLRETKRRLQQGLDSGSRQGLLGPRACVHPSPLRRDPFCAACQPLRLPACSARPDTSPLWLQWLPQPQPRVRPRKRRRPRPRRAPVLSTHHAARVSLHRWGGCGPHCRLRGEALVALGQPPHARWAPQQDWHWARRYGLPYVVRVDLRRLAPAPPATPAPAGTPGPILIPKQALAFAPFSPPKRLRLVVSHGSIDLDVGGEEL
Protocol: as §2

DNMT3b = DNMT3b (Homo sapiens, UniProt Q9UBC3); assay: Fluorescence polarization saturation binding of fluorescent probe to DNMT3b; conditions: saturation-binding format, read-out: Sinefungin Probe 1A Affinity
Protocol: as §2

PRMT4 = target: T5, PRMT4 (Homo sapiens, UniProt Q86X55); assay: Fluorescence polarization saturation binding of fluorescent probe to PRMT4; conditions: saturation-binding format, read-out: Sinefungin Probe 1A Affinity
T5 construct: made in house
T5 sequence (Q86X55 1-608): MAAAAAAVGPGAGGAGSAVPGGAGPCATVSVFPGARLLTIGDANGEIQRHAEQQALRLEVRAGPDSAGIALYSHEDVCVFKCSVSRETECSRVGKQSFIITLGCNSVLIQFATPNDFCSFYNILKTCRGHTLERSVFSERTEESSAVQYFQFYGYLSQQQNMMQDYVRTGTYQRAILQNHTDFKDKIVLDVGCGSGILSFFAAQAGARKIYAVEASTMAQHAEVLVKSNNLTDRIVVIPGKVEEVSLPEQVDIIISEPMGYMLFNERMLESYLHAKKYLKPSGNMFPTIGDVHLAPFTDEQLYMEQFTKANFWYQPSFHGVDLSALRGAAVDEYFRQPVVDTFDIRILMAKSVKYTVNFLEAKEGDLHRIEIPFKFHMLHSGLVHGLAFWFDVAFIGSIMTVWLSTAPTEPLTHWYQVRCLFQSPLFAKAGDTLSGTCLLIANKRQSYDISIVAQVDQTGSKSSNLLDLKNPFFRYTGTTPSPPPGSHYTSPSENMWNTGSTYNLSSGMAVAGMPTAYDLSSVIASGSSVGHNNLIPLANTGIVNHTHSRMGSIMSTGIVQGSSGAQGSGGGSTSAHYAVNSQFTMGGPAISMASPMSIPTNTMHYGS
Protocol: as §2

ASH2L = ASH2L (Homo sapiens, UniProt Q9UBL3); assay: Fluorescence polarization saturation binding of fluorescent probe to ASH2L; conditions: saturation-binding format, read-out: Sinefungin Probe 1A Affinity
ASH2L, sequence (Q9UBL3 whole entry, species assumed): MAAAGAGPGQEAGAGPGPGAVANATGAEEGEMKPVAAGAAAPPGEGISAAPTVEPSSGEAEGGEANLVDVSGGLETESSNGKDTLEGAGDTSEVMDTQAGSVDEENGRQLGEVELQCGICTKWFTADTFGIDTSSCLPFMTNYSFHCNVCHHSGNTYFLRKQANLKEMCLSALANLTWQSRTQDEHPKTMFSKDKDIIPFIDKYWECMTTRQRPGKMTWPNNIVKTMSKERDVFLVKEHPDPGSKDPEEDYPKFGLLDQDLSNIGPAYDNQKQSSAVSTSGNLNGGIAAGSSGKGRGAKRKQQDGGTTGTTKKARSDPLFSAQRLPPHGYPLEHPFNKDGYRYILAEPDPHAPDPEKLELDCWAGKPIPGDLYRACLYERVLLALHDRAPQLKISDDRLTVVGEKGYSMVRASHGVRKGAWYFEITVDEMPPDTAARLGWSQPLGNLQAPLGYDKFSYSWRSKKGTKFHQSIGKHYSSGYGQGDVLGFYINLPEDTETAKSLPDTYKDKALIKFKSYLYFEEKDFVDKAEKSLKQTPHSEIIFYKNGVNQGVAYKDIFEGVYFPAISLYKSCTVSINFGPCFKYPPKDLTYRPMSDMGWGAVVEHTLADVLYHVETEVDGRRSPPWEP
Protocol: as §2

Trypsin = assay: Fluorescence polarization saturation binding of fluorescent probe to Trypsin (control protein); conditions: saturation-binding format, read-out: Sinefungin Probe 1A Affinity
Protocol: as §2

- Kd (SET7/9; Example 8, SET7/9, 5 nM probe, experiment performed once, FIG. 2, read-out: Kd): 17 nM
- Kd (SET7/9; SET7/9, saturation-binding format, mean ± SEM, at least two independent experiments, read-out: Sinefungin Probe 1A Affinity): < 2000 nM and 27 nM
- Kd (PRDM9): 2600 ± 600 nM
- Kd (PRMT1; PRMT1, saturation-binding format, read-out: Sinefungin Probe 1A Affinity): > 1200 nM
- Kd (SET8; SET8, saturation-binding format, read-out: Sinefungin Probe 1A Affinity): > 2000 nM
- Kd (KMT5c): > 2000 nM
- Kd (DNMT3b): > 2000 nM
- Kd (PRMT4): > 2000 nM
- Kd (ASH2L): > 10 µM
- Kd (Trypsin): > 10 µM
SMILES: Nc1ncnc2c1ncn2[C@@H]1O[C@H](C[C@@H](N)CC[C@H](N)C(=O)O)[C@@H](OCc2cnnn2CCCCCCNC(=O)OC2CCN(C(=O)c3ccccc3C3=c4cc5c6c(c4Oc4c3cc3c7c4CCCN7CCC3)CCC[N+]=6CCC5)CC2)[C@H]1O [Sinefungin Probe 1A]
- measurable affinity for the probe (PRMT1; Example 8, PRMT1, 5 nM probe, FIG. 2): only SET7/9 and G9a displayed measurable affinity
- measurable affinity for the probe (SET8; Example 8, SET8, 5 nM probe, FIG. 2): only SET7/9 and G9a displayed measurable affinity
